We go through seven compounds from PMC8638259 (Biochemistry, 2021).

Several values for one entry are separate records, joined by “and”; a condition that tells them apart may be missing. Equal values may be shown once. Entries after “also recorded” stand apart in the source; their conditions may differ. Read-outs that look alike come from different tables or passages of the source. Marks after values point to notes of the source that are not given here.

As a reminder, the IC50 is the midpoint of a concentration-inhibition curve. One may read the Kd as the constant that tells how readily two partners part at equilibrium. Usually Km stands for the concentration of substrate that gives half-maximal velocity.

Data set [1] has as its system T1, Mat2A.
T1 construct: His6 (N, cleaved yes); TEV protease cleavage site (N, cleaved yes); made in house; host or cells: E. coli BL21 STAR (DE3)
The conditions noted are these: cited from earlier work.

Data set [2] has as its system Mat2A + Mat2B. More on the design: method as in PMID 28553945. As to conditions: after addition of Mat2B, cited from earlier work.
Data set [3] deals with T2, Mat2A/Mat2B complex (Homo sapiens, UniProt P31153).
T2 construct: His6 (N, cleaved yes); TEV protease cleavage site (N, cleaved yes); made in house; host or cells: E. coli BL21 STAR (DE3)
Put plainly: Coupled phosphate detection assay (assay 1) with the Mat2A/Mat2B complex. Format: biochemical. The conditions noted are these: for Km: Mat2A + Mat2B (250 nM Mat2A, 600 nM Mat2B), pH 7.5, 22 °C.

Data set [4] addresses T3, human Mat2A (Homo sapiens, UniProt P31153).
T3 construct: His6 (N, cleaved yes); TEV protease cleavage site (N, cleaved yes); made in house; host or cells: E. coli BL21 STAR (DE3)
Put plainly: MESG EnzChek coupled phosphate detection assay (assay 1), Mat2A initial rates. Format: biochemical. More on the design: key to type of inhibition (product inhibition) / inhibition pattern (dead-end inhibition): U indicates uncompetitive inhibition; NC indicates noncompetitive inhibition. As to conditions: for Km: average of five independent experiments ± SD.

For data set [5], the target named is T3, human Mat2A. Put plainly: Isothermal titration calorimetry (ITC) binding to Mat2A. As to conditions: for binding to Mat2A (ITC): in the absence of ATP. As for the experimental part: Prior to performing ITC, proteins (approximately 1 mL volume) were dialyzed using D-Tube Dialyzers (Maxi 100–3000 μL, MWCO 6–8 kDa) (Novagen) against 1 L of buffer A for 2–4 h at 4 °C with agitation using a magnetic stirring bar. […] Titrations were performed at 20 °C. Protein concentrations were determined by A280 using a UV-2550 spectrophotometer. The protein and ligand concentrations that were used are indicated in the legends of Figures 5 and 6. ITC measurements were performed on a MicroCal PEAQ-ITC calorimeter (Malvern Panalytical). Data were analyzed using the MicroCal PEAQ-ITC analysis software supplied by the manufacturer using nonlinear regression with the One Set of Sites model. For each experiment, the heat produced or consumed associated with ligand dilution was measured and subtracted from the raw data.

In data set [6] the target is T3, human Mat2A. Put plainly: LC-MS SAM detection assay (assay 2), Mat2A initial rates. Format: biochemical. As to conditions: pH 7.5, 22 °C; for Ki: read-out: inhibition constant Kis (product inhibition by phosphate); for Km: Mat2A only, single experiment, three replicates ± SE. Set-up: key to type of inhibition (product inhibition by phosphate): U indicates uncompetitive inhibition; NC indicates noncompetitive inhibition. The text has this: In all cases, initial velocities were obtained from the linear regions of the reaction progress curves (<200 s, Figures S3C and S5).
The LC–MS assay monitors SAM directly and was developed to confirm the kinetic parameters that were obtained in the phosphate coupled assay and to carry out product inhibition studies by Pi, which was not possible using the phosphate coupled assay. The amount of SAM produced was quantified using a standard curve (Figure S3F). Prior to LC–MS, 1:1 methanol/acetonitrile + 0.1% (v/v) formic acid was added to the samples. LC–MS was performed using an Agilent 1200 LC system fitted with a Cogent Diamond Hydride Type C silica column (2.1 × 150 mm, dead volume 315 μL). Solvent A was LC–MS grade H2O + 0.1% (v/v) formic acid. Solvent B was acetonitrile + 0.1% (v/v) formic acid. The gradient started at 85% B dropping to 5% B over 14 min. Flow rate was 0.4 mL/min. Mass spectrometry was performed using an Agilent Accurate Mass 6230 TOF apparatus in positive-ion mode. The doubly charged SAM ion was detected at an m/z of 200.0759.
Product and dead-end inhibition data showing competitive, noncompetitive, or uncompetitive patterns were fitted to eqs 2–4, respectively. [drawing 2] 2 [drawing 3] 3 [drawing 4] 4 where I is the inhibitor concentration; S is the concentration of the variable substrate; Km is the Michaelis constant for the variable substrate; and Kis and Kii are the slope and intercept inhibition constants, respectively.
Saturation kinetics data were fitted to eq 5. [drawing 5] 5

The test system of data set [7] is T1, Mat2A. The data set is described as follows: Stability assay: Mat2A activity after preincubation at 37 °C. It is filed as biochemical, human.
Data set [8] concerns the target Mat2B (Homo sapiens) (UniProt Q9NZL9). The conditions noted are these: cited from earlier work.
In data set [9] the target is T2, Mat2A/Mat2B complex. Put plainly: Kinetic constants of Mat2A/Mat2B complex after preincubation at 37 °C. It is filed as biochemical. As to conditions: 60 nM Mat2A + 30 nM Mat2B preincubated 15 min at 37 °C; assay at pH 7.5, 22 °C; ATP 1.25 mM; read-out: Km(L-Met).
The mark [10] stands for this setting: saturating Mat2B, ATP varied, saturating L-Met 600 μM.
Setting [11] is: variable substrate ATP, saturating L-Met 0.6 mM.
[12] abbreviates: variable substrate L-Met, saturating ATP 0.5 or 1 mM.

On to `C[S+](CC[C@H](N)C(=O)[O-])C[C@H]1O[C@@H](n2cnc3c(N)ncnc32)[C@H](O)[C@@H]1O` (stereo partly drawn) [SAM, S-adenosyl-L-methionine], for which the 50% inhibitory concentration (IC50) is roughly 300 µM in data set [1] (without Mat2B, read-out: IC50 of product inhibition by SAM) and roughly 150 µM in data set [2] (read-out: IC50 of product inhibition by SAM). The “Kii(SAM)” value in data set [3] (setting [10]) amounted to 130 ± 40 µM. Also, the “type of inhibition by SAM” value in data set [3] (setting [10]) is listed as “uncompetitive”. The “increase in the potency of SAM inhibition in the presence of Mat2B” value in data set [3] (versus Mat2A alone) came out at 1.8 fold. Besides, the “type of inhibition (product inhibition)” value is “NC ^c” in [4] (variable substrate ATP, nonsaturating L-Met (0.02 mM), pH 7.5, 22 °C); “U ^b” in data set [4] (variable substrate ATP, saturating L-Met 0.6 mM, pH 7.5, 22 °C); “NC ^c” in [4] (variable substrate L-Met, nonsaturating ATP (0.07 mM), pH 7.5, 22 °C); “NC ^b” in [4] (variable substrate L-Met, saturating ATP 0.5 or 1 mM, pH 7.5, 22 °C). The Ki in data set [4] (variable substrate ATP, nonsaturating L-Met (0.02 mM), pH 7.5, 22 °C, read-out: inhibition constant Kis (product inhibition)) came out at 620 µM; in data set [4] (variable substrate L-Met, nonsaturating ATP (0.07 mM), pH 7.5, 22 °C, read-out: inhibition constant Kis (product inhibition)) it was 250 µM; in data set [4] (variable substrate L-Met, saturating ATP 0.5 or 1 mM, pH 7.5, 22 °C, read-out: inhibition constant Kis (product inhibition)), 190 µM.
On to `NC1(C(=O)O)CCCC1` [L-cLeu, L-cycloleucine, reference compound], for which the “binding to Mat2A (ITC)” value in [5] (ITC, 20 °C) is “no significant change in heat”; in data set [5] (ITC, 20 °C, listed as Cycloleucine), “No binding”. In addition, the Kd in [5] (ITC, 20 °C, in the presence of 2 mM ATP) came to 25 ± 10 µM. In addition, the “extent of inhibition of Mat2A” value in data set [4] is listed as “fully inhibit”. Also, the “substrate activity for Mat2A” value in data set [4] is given as “not a substrate”. The “inhibition pattern (dead-end inhibition)” value in [4] (variable substrate ATP, nonsaturating L-Met = 0.02 mM, pH 7.5, 22 °C) is given as “U”. The Ki in data set [4] (variable substrate L-Met, nonsaturating ATP = 0.07 mM, pH 7.5, 22 °C, read-out: inhibition constant Kis (dead-end inhibition)) is 160 µM; in [4] (variable substrate L-Met, saturating ATP = 1 mM, pH 7.5, 22 °C, read-out: inhibition constant Kis (dead-end inhibition)), 290 µM.
For the compound `O=P(O)(O)O` [phosphate, inorganic phosphate], in data set [6] (setting [11]), the “inhibition constant Kii (product inhibition by phosphate)” value is listed as “Kii = 5740 ± 760 ^b μM”, the “type of inhibition (product inhibition by phosphate)” value was “NC ^b” and the Ki is 1290 µM. Further, in [6] (setting [12]), the “inhibition constant Kii (product inhibition by phosphate)” value is given as “Kii = 4970 ± 770 ^b μM”, the “type of inhibition (product inhibition by phosphate)” value is “NC ^b” and the Ki came to 1580 µM.
Regarding “Mat2A: recombinant full-length human methionine adenosyltransferase Mat2A (UniProt P31153)”, the “kcat reported by other groups” value in data set [1] (different assay methods) was 0.27 s^–1 and 0.35 s^–1. For the same compound, the “time to 50% loss of activity” value in [7] (60 nM Mat2A preincubated in assay buffer at 37 °C, no substrates, no Mat2B) was found to be 2.3 min. The kcat in [7] (Mat2A only (60 nM) preincubated 15 min at 37 °C, assay at pH 7.5, 22 °C) is on record as 0.09 ± 0.005 ^b s^–1.
The compound `Nc1ncnc2c1ncn2[C@@H]1O[C@H](COP(=O)(O)OP(=O)(O)OP(=O)(O)O)[C@@H](O)[C@H]1O` [ATP, adenosine 5′-triphosphate] displayed a dissociation constant Kd in [5] of 80 ± 30 µM. Also, the Km in data set [3] (read-out: Km(ATP)) came out at 50 ± 5 µM; in [6] (read-out: Km(ATP)), 55 ± 10 µM; in [4] (Mat2A only, pH 7.5, 22 °C, read-out: Km(ATP)), 50 ± 10 µM. Further, in [4] (Mat2A only, dissociation constant of enzyme-ATP complex from eq 1, pH 7.5, 22 °C, read-out: Ki(ATP)), the Ki came out at 349 ± 66 µM.
For Mat1A (from UniProt Q00266), in data set [8], the equilibrium dissociation constant (Kd) is 3 µM.
For `CSCC[C@H](N)C(=O)O` [L-Met, L-methionine], the Michaelis constant (Km) was 14 µM in data set [1] (without Mat2B, read-out: Km for L-Met); 2.5 µM in data set [2] (read-out: Km for L-Met); 4 ± 1 µM in [3] (read-out: Km(L-Met)); 8 ± 2 µM in data set [6] (read-out: Km(L-Met)); 5 ± 2 µM in data set [4] (Mat2A only, pH 7.5, 22 °C, read-out: Km(L-Met)); 3.5 ± 1.3 µM in data set [7] (Mat2A only (60 nM) preincubated 15 min at 37 °C, assay at pH 7.5, 22 °C, ATP 1.25 mM, read-out: Km(L-Met)). Also, the Michaelis constant (Km) in data set [9] is 3.9 ± 0.1 µM. For the same compound, the “binding to Mat2A (ITC)” value in data set [5] (ITC, 20 °C) is on record as “No significant change in heat; also recorded: No binding”.
